Test results reported in patent publication US20230303556A1, “PIPERAZINE SUBSTITUTED INDAZOLE COMPOUNDS AS INHIBITORS OF PARG” (IDEAYA BIOSCIENCES, INC., priority 2022, published 2023).
≈ marks a conversion by molar mass, not a printed value. Where two headings read alike, the source gives them in different places.

Experiments:
hPARG = hPARG (Homo sapiens (Human), UniProt Q86W56); assay: Inhibition of PARG enzymatic assay (TR-FRET); assay type: biochemical; details: geometric mean; 1 hr compound/enzyme pre-incubation
Method: PARG enzyme was incubated with compound or vehicle (DMSO) and the biotinylated-PARylated PARP-1 substrate in a microtiter plate. After adding detection antibody and streptavidin-europium, and then incubating, the plate was read for fluorescence intensity. The low control (DMSO) with low fluorescence intensity represents no inhibition of enzymatic activity, while the high control (no enzyme) with high fluorescence intensity represents full inhibition of enzymatic activity.
• 0% inhibition: DMSO • 100% inhibition: No enzyme Enzyme reaction and Detection: • 1. Transfer 200 nL of 100× compound or DMSO to the appropriate wells of a 384 well white polystyrene microtitre plate (Corning Catalog #3574). • 2. Transfer 10 uL of 2× final concentration of enzyme in assay buffer or assay buffer alone to the appropriate wells. • 3. Centrifuge the plate at 1000 rpm for 30 seconds. • 4. Incubate the plate at room temperature for 1 hour. • 5. Transfer 10 uL of 2× substrate in assay buffer to all test wells. • 6. Incubate the plate at room temperature for 10 minutes • 7. Transfer 10 uL of 3× mixture of 42 nM detection antibody and 2.25 nM streptavidin-europium in 50 mM Tris-HCL pH 7.4 to all test wells. • 8. Incubate the plate at room temperature for 1 hour. • 9. Read the plate on a plate reader (Envision) • Excitation: 317 nm • Emission: 620 nm • Emission: 665 nm
EC50 values were calculated in Collaborative Drug Discovery vault (CDD). Curves were fitted by CDD as response (%) vs compound concentration (uM) using a 4-parameter inhibition model using Formula 1.
(§1) Fit=(A+((B−A)/(1+((C/x)^D))))

RMUGS-NucLight Red cells = assay: Cellular viability assay, RMUGS-NucLight Red; assay type: cell-based; details: 168 h, 7 days incubation, geometric mean
Method: (§2) The ability of the compounds disclosed herein to inhibit PARG was determined in the following two cell lines: RMUGS-NucLight Red and SNU601-NucLight Red. RMUGS-NucLight Red and SNU601-NucLight Red cells were generated by stably transducing parental cells (RMUGS-JCRB Cell Bank, Cat no: IF050320; SNU601-Korean Cell Line Bank, Cat no:00601) with Incucyte® NucLight Red lentivirus (Sartorius, Cat no: 4476). Described below are the protocols followed for both the cell lines.
(§3) The cells were plated at 1000 cells/well in a 96-well black plate with clear flat bottom. After 24 hours, the plates were imaged using the Incucyte® S3 Live-Cell Analysis system and the number of live cells in each well (Day 0) was counted. Test compounds were then added by Tecan digital dispenser to generate a 9 point dose curve with a 3 fold dilution and 10 uM top concentration. All treatments were done in duplicates. After 7 days of incubation, the plates were imaged using the Incucyte® S3 system and the number of live cells per well (Day 7) was counted. For every well on the plate, the live cell counts on day 7 was normalized to the cell counts from day 0 (Day 7/Day 0). Average values of DMSO treated wells in a plate were calculated. All the data points were normalized to that of the average DMSO value. The % of control for each sample was compared to DMSO treated control samples. EC5 values were calculated in Collaborative Drug Discovery vault (CDD). Curves were fitted by CDD as % of control vs. log [compound concentration] using a 4-parameter inhibition model (Levenberg-Marquardt algorithm):
as §1

[1] = system: SNU601-NucLight Red cells; assay: Cellular viability assay, SNU601-NucLight Red; assay type: cell-based; details: SNU-601, 168 h, 7 days incubation, geometric mean
Method: as §2
as §3, with “200” for “1000”, “384-well” for “96-well”, “triplicates.” for “duplicates.”, “EC50” for “EC5”
as §1
When clear bi-phasic behavior was observed on the resulting data the EC50 was calculated in GraphPad Prism Software for the major fraction of the response using the following formula:
Section1=Span*Frac/(1+10^((Log EC50_1−X)*nH1))
Section2=Span*(1−Frac)/(1+10^((Log EC50_2−X)*nH2))

[2] = Kinetic solubility in PBS pH 2.0 and pH 7.4; assay type: physicochemical; details: aqueous buffer, kinetic from dmso stock, * n <3 runs
Method: • Control compound diclofenac sodium (LOT #BCBW9128) was purchased from Sigma Chemical Co. • 1.5 mL glass flat bottom vials (BioTech Solutions) • Molded PTFE/SIL plugs (BioTech Solutions) • PTFE encapsulated stir stick (V&P Scientific) • MultiScreenHTS HV (0.45 μm) 96 well plate (Millipore, MSHVN4510 or MSHVN4550) • Eppendorf Thermomixer Comfort • Vacuum Manifold ORVMN96. • PBS pH 2.0 and pH 7.4 was prepared in our laboratory
• diclofenac sodium (LOT #BCBW9128), Sigma Chemical Co.
• 1. Preparation of stock solutions. The stock solutions of test compounds and control compound diclofenac sodium were prepared in DMSO at the concentration of 30 mM and 10 mM, respectively. • 2. Procedure for solubility determination. 10 μL of stock solutions (30 mM) of test compounds was placed in order into their proper 96-well rack, 20 μL of DMSO and 970 μL of PBS pH 2.0 or pH 7.4 was added into each vial of the cap-less Solubility Sample plate; 30 μL of stock solution (10 mM) of control compound was placed in order into its proper 96-well rack, 970 μL of PBS pH 2.0 or pH 7.4 was added into each vial of the cap-less Solubility Sample plate. The assay was performed in duplicate. One stir stick was added to each vial and seal using a molded PTFE/Silicone plug. Then the Solubility Sample plate was transferred to the Eppendorf Thermomixer Comfort plate shaker and shaken at 25° C. at 1100 RPM for 24 hours. After completion of the 24 hours, plugs were removed and the stir sticks were removed using a big magnet, the samples from the Solubility Sample plate were transferred into the filter plate. Using the Vacuum Manifold, all the samples were filtered. Aliquot of 10 μL was taken from the filtrate followed by addition of 990 μL of a mixture of H2O and acetonitrile (1:1 in v/v). 200 μL of diluent was transferred to a new 96-well plate for LC-MS/MS analysis. The dilution factor was changed according to the solubility values and the LC-MS signal response. • 3. Preparation of 3 μM standards (STD). From the 10 mM or 30 mM DMSO STD plate, 15 μL or 5 μL was transferred into the remaining empty plate, and then 485 μL or 495 μL of DMSO was added to that plate to have a STD concentration of 300 μM. From the 300 μM DMSO STD plate, 5 μL was transferred into the remaining empty plate, and then 495 μL of a mixture of H2O and acetonitrile (1:1 in v/v) was added to that plate to have a final STD concentration of 3 μM. 200 μL of diluent was transferred to a new 96-well plate for LC-MS/MS analysis. The concentrations of the standard samples were changed according to the LC-MS signal response. • 4. Procedure for sample analysis. The plate was placed into the well plate autosampler. The samples were evaluated by LC-MS/MS analysis.

[3] = PBS pH 2.0, 25° C., read-out: Kinetic Solubility pH 2.0
[4] = PBS pH 7.4, 25° C., read-out: Kinetic Solubility pH 7.4

hPARG, sequence (Q86W56 whole entry): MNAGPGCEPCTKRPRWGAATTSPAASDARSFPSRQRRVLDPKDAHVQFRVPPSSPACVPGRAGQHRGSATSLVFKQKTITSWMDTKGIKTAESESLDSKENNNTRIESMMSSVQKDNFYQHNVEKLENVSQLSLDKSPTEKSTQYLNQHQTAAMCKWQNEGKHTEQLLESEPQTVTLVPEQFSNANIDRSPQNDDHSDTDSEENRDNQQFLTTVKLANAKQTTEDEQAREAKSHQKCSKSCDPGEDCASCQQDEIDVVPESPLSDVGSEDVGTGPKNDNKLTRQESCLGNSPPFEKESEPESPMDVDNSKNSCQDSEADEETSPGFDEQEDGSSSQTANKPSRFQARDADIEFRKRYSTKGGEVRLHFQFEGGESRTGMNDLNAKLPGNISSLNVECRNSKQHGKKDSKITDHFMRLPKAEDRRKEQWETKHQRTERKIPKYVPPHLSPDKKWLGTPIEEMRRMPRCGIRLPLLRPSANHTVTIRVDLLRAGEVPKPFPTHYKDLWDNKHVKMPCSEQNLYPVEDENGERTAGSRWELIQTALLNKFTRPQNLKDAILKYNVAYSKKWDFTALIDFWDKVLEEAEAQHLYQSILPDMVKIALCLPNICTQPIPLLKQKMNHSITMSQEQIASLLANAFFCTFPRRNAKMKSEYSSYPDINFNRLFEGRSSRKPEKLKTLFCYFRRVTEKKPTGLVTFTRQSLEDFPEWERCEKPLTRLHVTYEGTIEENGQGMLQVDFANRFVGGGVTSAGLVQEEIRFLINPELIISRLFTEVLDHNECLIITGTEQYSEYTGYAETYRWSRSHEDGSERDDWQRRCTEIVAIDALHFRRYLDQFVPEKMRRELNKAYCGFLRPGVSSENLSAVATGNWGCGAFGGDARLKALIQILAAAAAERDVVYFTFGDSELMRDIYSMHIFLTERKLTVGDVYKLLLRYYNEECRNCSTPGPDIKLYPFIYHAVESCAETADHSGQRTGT

Row | SMILES | EC50 (hPARG) | EC50 [1] | solubility kinetic at 24 h [2, 3] | solubility kinetic at 24 h [2, 4] | EC50 (RMUGS-NucLight Red cells)
1 | C[C@@H]1CN(c2cc(S(=O)(=O)NC3(C)CC3)cc3c2cnn3-c2nnc(C(F)F)s2)C[C@H](C)N1 | 15 nM | 27 nM | 271 µM (≈ 135 µg/mL) | 31 µM (≈ 15.4 µg/mL) | 11 nM
2 | C[C@@H]1CN(c2cc(S(=O)(=O)NC3(C)CC3)cc3c2cnn3-c2nnc(C(F)F)s2)C[C@@H](C)N1 | 51 nM | 89 nM | 261 µM (≈ 130 µg/mL) | 41 µM (≈ 20.4 µg/mL) | 32 nM
3 | Cc1nnc(-n2ccc3ccc(S(=O)(=O)NC4(C)CC4)cc32)s1 | > 10000 nM | > 10000 nM | 29 µM (≈ 10.1 µg/mL) | 24 µM (≈ 8.36 µg/mL) | > 10000 nM
4 | CC(C)C(=O)N1CCN(c2cc(S(=O)(=O)NC3(C#N)CC3)cc3c2cnn3-c2nnc(C(F)F)s2)C[C@H]1C | 39 nM | 146 nM | 2.1 µM (≈ 1.19 µg/mL) | 5.6 µM (≈ 3.16 µg/mL) | 75 nM
5 | CC(C)C(=O)N1CCN(c2cc(S(=O)(=O)NC3(C#N)CC3)cc3c2cnn3-c2nnc(C(F)F)s2)C[C@@H]1C | 76 nM | 184 nM | 3.4 µM (≈ 1.92 µg/mL) | 8 µM (≈ 4.52 µg/mL) | 137 nM
6 | CC(C)C(=O)N1[C@H](C)CN(c2cc(S(=O)(=O)NC3(C#N)CC3)cc3c2cnn3-c2nnc(C(F)F)s2)C[C@@H]1C | 79 nM | 178 nM | < 0.03 µM | < 0.03 µM | 101 nM
7 | C[C@H]1CN(c2cc(S(=O)(=O)NC3(C)CC3)cc3c2cnn3-c2nnc(C(F)F)s2)C[C@H](C)N1 [drawing 29] | 1.9 nM | 11 nM | 282 µM (≈ 140 µg/mL) | 42 µM (≈ 20.9 µg/mL) | 4.2 nM

Continued, in another order:

Row | EC50 (hPARG) | EC50 [1] | solubility kinetic at 24 h [2, 3] | solubility kinetic at 24 h [2, 4] | SMILES | EC50 (RMUGS-NucLight Red cells)
8 | 19 nM | 104 nM | 1.1 µM (≈ 0.606 µg/mL) | 2.1 µM (≈ 1.16 µg/mL) | CC(C)C(=O)N1CCN(c2cc(S(=O)(=O)NC3(C#N)CC3)cc3c2cnn3-c2nnc(C(F)F)s2)CC1 | 64 nM
9 | 201 nM | 1580 nM | 289 µM (≈ 143 µg/mL) | 2.7 µM (≈ 1.34 µg/mL) | CN1CCN(c2cc(S(=O)(=O)NC3(C#N)CC3)cc3c2cnn3-c2nnc(C(F)F)s2)CC1 | 439 nM
10 | 7.3 nM | 36 nM | 0.2 µM (≈ 0.108 µg/mL) | 0.3 µM (≈ 0.162 µg/mL) | CN(C)C(=O)N1CCN(c2cc(S(=O)(=O)NC3(C)CC3)cc3c2cnn3-c2nnc(C(F)F)s2)CC1 | 8.3 nM
11 | 6.6 nM | 81 nM | 1 µM (≈ 0.552 µg/mL) | 1.4 µM (≈ 0.772 µg/mL) | CN(C)C(=O)N1CCN(c2cc(S(=O)(=O)NC3(C#N)CC3)cc3c2cnn3-c2nnc(C(F)F)s2)CC1 | 49 nM
12 | 9.9 nM | 84 nM | 7.2 µM (≈ 4.07 µg/mL) | 14 µM (≈ 7.92 µg/mL) | C[C@@H]1CN(c2cc(S(=O)(=O)NC3(C#N)CC3)cc3c2cnn3-c2nnc(C(F)F)s2)CCN1C(=O)N(C)C | 60 nM
13 | 14 nM | 110 nM | 7.8 µM (≈ 4.41 µg/mL) | 14 µM (≈ 7.92 µg/mL) | C[C@H]1CN(c2cc(S(=O)(=O)NC3(C#N)CC3)cc3c2cnn3-c2nnc(C(F)F)s2)CCN1C(=O)N(C)C | 77 nM
